# Assay: Onset and duration of effect of methylcobalamin administration (subject reports, QEEG)
# Assay type: in vivo, human
# Conditions: varies between persons
# Protocol: In a person responsive to methylcobalamin, the effects of methylcobalmin administered nasally may begin to occur within minutes of administration. […] In various experiments, subjects reported feeling better in minutes and sometimes seconds. Thus, improvements can occur within the first hour of administration.
# Although the effects of a typical administration can last about 24 hours, every person is different. Thus, some people can become depleted of available methylcobalamin in hours or less, while others can feel the benefits for days. The dosage and frequency of methylcobalamin administration can decrease over time, particularly with changing lifestyle or eating habits. For example, reducing intake of milk and wheat products, complex carbohydrates and starches, and improvements to intestinal flora may reduce the need for methylcobalamin.
compound,measurement,value
C/C1=C2/[N-][C@H]([C@H](CC(N)=O)[C@@]2(C)CCC(=O)NC[C@@H](C)OP(=O)([O-])O[C@H]2[C@@H](O)[C@@H](n3cnc4cc(C)c(C)cc43)O[C@@H]2CO)[C@]2(C)N=C(/C(C)=C3N=C(/C=C4N=C1[C@@H](CCC(N)=O)C\4(C)C)[C@@H](CCC(N)=O)[C@]\3(C)CC(N)=O)[C@@H](CCC(N)=O)[C@]2(C)CC(N)=O.[CH3-].[Co+3] [methylcobalamin],duration of effects of a typical administration,about 24 hours
